In patent publication US12221425B2, “Process for the preparation of CIC-1 chloride channel inhibitors” (NMD PHARMA A/S, priority 2019, dated 2025):

Target: T1, human CIC-1 channels (Homo sapiens, UniProt P35523)
T1 construct: host or cells: CHO (Chinese hamster ovary) cells constitutively expressing human ClC-1
Assay: Automated whole cell patch clamp (Qpatch 16) on CHO cells expressing human CIC-1, compound added intracellularly
Assay type: cell-based
Conditions: compound in intracellular solution vs vehicle control patches, positive shift reflects CIC-1 inhibition
Description: The investigatory goal of these experiments was to evaluate how compounds affect the open probability and current amplitude of human CIC-1 channels expressed in CHO cells. Experiments were performed using an automated patch clamp system that allowed high throughput testing of whole cell patches together with both intracellular and extracellular addition of compound.
Automated whole cell patch clamp experiments were performed with the Qpatch 16 system (Sophion Bioscience, Ballerup, Denmark) at room temperature. Data acquisition and analysis were performed in the Qassay software (ver. 5.6, Odense).
To evoke CIC-1 currents in whole cell patches, the membrane potential was initially stepped from a holding potential of −30 mV to +60 mV for 100 ms and then to various test voltages (sweeps) ranging from +120 mV to −140 mV in steps of 20 mV for 300 ms. To obtain tail currents, the membrane potential was stepped to −100 mV after each test voltage for 300 ms and then relaxed to −30 mV for 2 sec between sweeps (FIG. 1). I/V relationships for whole cell instant and steady state current amplitudes were obtained by plotting average current densities at the beginning and at the end of the 300 ms step against the membrane potential (FIG. 2).
In order to determine the relative overall open probability (P0), the instantaneous tail currents were normalized to the maximal tail current obtained following the most positive voltage step and plotted against the test voltage. Plots of normalized tail currents from each whole cell patch were then fitted to a Boltzmann function allowing determination of half activation voltages (V1/2, FIG. 3).
For automated patch clamp experiments extracellular solutions contained: 2 mM CaCl2, 1 mM MgCl2, 10 mM HEPES, 4 mM KCl, 145 mM NaCl, 10 mM Glucose, pH adjusted to 7.4 with NaOH (2 M). Osmolality adjusted to ˜320 using sucrose.
Intracellular solutions contained: 80 mM CsF, 60 mM CsCl, 5/1 mM KOH/EGTA, 10 mM HEPES, 10 mM NaCl, pH adjusted to 7.2 with NaOH (2 M). Osmolality adjusted to ˜320 mOsm using sucrose.
Cells used in patch clamp experiments were Chinese hamster ovary cells (CHO) constitutively expressing human CIC-1 channels. The amino acid sequence encoded by the cDNA used to create this cell line was identical to the translated sequence for GenBank accession number NM_000083.2. Cells were produced by Charles River (Catalogue CT6175, Cleveland OH, USA) in a cryopreserved format. Experiments were performed on the cells directly after thawing (3×10^6 cells used in each experiment).
To evaluate the compound effect on CIC-1, when applied directly to the intracellular side of the cell membrane, the half activation voltage, V1/2, was determined from whole cell patches with compound added to the intracellular solution and then compared to V1/2 determined from control cell patches with only vehicle added to the intracellular solution. Additionally, the effect of extracellular added compound was evaluated by determine V1/2 and steady state current amplitudes before and after exchanging the extracellular solution to contain compound.
The difference in half activation voltage of CIC-1 channels, ΔV1/2, was determined as the difference between the cell patches treated intracellularly with compound and control cells patches and is reported in Table 1 below. A positive shift in ΔV1/2 is reflecting CIC-1 channel inhibition by the tested compound. P-values of <0.05 is considered significant.

T1 sequence (P35523 whole entry): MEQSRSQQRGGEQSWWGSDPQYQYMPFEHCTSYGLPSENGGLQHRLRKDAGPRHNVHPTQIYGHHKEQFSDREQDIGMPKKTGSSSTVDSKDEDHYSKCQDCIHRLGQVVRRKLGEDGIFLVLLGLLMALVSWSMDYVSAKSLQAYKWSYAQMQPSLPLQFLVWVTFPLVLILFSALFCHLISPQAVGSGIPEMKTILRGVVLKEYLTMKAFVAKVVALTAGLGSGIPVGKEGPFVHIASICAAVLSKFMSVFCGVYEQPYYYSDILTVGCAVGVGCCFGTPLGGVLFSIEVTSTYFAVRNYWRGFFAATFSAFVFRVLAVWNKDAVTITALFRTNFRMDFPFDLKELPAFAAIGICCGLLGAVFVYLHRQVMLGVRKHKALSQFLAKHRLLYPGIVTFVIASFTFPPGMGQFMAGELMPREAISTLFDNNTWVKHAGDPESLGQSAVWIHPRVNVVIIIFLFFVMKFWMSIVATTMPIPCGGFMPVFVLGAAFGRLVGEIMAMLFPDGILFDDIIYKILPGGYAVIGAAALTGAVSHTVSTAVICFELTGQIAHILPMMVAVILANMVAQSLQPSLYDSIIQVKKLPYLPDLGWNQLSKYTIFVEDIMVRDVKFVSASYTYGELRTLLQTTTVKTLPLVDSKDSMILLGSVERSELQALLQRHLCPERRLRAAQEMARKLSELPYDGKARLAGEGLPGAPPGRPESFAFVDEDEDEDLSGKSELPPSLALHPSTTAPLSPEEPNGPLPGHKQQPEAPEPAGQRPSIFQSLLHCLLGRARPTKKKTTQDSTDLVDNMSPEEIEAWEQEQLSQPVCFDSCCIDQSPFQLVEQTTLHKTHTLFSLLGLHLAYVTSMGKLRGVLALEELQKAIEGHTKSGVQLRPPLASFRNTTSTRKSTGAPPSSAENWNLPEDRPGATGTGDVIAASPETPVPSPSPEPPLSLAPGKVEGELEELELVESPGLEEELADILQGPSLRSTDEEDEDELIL

Row | Shift in half activation voltage, ΔV1/2 | Structure (SMILES)
1 | 14.1 mV | C[C@H](Oc1ccc(Br)cc1-c1ccon1)C(=O)O [(2S)-2-(4-bromo-2-(isoxazol-3-yl)phenoxy)propanoic acid]
2 | 17.7 mV | C[C@H](Oc1cc(F)c(Br)cc1-c1ccon1)C(=O)O [(2S)-2-[4-bromo-5-fluoro-2-(1,2-oxazol-3-yl)phenoxy]propanoic acid]
3 | 11.3 mV | O=C(O)COc1ccc(Br)cc1-c1ccon1 [2-[4-bromo-2-(1,2-oxazol-3-yl)phenoxy]acetic acid]
4 | 7.2 mV | CC[C@H](Oc1ccc(Br)cc1-c1ccon1)C(=O)O [(2S)-2-[4-bromo-2-(1,2-oxazol-3-yl)phenoxy]butanoic acid]
5 | 8.1 mV | C[C@H](Oc1ccc(Cl)cc1-c1ccon1)C(=O)O [(2S)-2-[4-chloro-2-(1,2-oxazol-3-yl)phenoxy]propanoic acid]
